Test results as given in paper PMC3724809, “Analysis of the Interaction Interfaces of the N-Terminal Domain from Pseudomonas aeruginosa MutL” (PLoS ONE, 2013).

Legend:
[1] = molecular target: T1, PaNTD (P. aeruginosa MutL N-terminal domain) (Pseudomonas aeruginosa, UniProt Q9HUL8); assay: size-exclusion chromatography, nucleotide-induced dimerization; type: binding; settings: 5 mM MgCl2, 150 mM KCl, 20 mM Tris-HCl pH 7.9, room temperature
T1 sequence (Q9HUL8 1-339): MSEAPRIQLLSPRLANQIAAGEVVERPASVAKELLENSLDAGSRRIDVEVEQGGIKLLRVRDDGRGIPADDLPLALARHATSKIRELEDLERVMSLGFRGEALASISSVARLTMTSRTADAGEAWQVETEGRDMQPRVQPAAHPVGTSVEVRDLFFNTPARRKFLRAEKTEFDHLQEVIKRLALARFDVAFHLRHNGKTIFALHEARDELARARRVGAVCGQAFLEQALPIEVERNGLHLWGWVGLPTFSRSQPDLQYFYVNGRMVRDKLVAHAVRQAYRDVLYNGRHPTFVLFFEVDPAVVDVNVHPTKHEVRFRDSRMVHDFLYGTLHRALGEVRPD

[2] = molecular target: T2, EcNTD (E. coli MutL N-terminal domain, LN40) (Escherichia coli, UniProt P23367); assay: DSS chemical cross-linking, nucleotide-induced dimerization, SDS-PAGE; type: binding; settings: 1 mM AMPPNP, 5 mM MgCl2, 150 mM KCl, 20 mM HEPES pH 7.4, 4 °C
T2 sequence (P23367 1-342): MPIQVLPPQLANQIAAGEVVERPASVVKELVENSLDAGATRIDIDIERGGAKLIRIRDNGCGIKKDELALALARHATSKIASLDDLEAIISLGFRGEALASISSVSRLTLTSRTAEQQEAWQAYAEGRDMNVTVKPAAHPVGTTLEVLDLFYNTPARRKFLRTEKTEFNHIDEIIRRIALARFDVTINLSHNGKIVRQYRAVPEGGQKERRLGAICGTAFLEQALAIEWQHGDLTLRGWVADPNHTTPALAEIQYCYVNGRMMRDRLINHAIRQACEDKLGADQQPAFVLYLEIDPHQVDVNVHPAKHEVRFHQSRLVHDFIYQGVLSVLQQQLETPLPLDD

[3] = molecular target: the molecule itself; assay: SEC; Superose 12 10/30, 20 mM Tris-HCl pH 7.9, 150 mM KCl, 5 mM MgCl2, 1 mM DTT, room temperature; 1 mg/ml PaNTD or 2 mg/ml EcNTD (legend: 22 µM) without nucleotide, with ADP or with ATP; calibrated with BSA 45 and 66 kDa

Molecule: Nc1ncnc2c1ncn2[C@@H]1O[C@H](COP(=O)(O)OP(=O)(O)O)[C@@H](O)[C@H]1O [ADP]
- size-exclusion chromatography, nucleotide-induced dimerization [1]: PaNTD binding to ADP displaced monomer-dimer equilibrium as judged by size-exclusion chromatography

Molecule: Nc1ncnc2c1ncn2[C@@H]1O[C@H](COP(=O)(O)OP(=O)(O)NP(=O)(O)O)[C@@H](O)[C@H]1O [AMPPNP]
- DSS chemical cross-linking, nucleotide-induced dimerization, SDS-PAGE [2]: EcNTD dimers were only observed in presence of AMPPNP (Figure S5)

Molecule: Nc1ncnc2c1ncn2[C@@H]1O[C@H](COP(=O)(O)OP(=O)(O)OP(=O)(O)O)[C@@H](O)[C@H]1O [ATP]
- size-exclusion chromatography, nucleotide-induced dimerization [1]: No major differences were observed among the elution pattern of ADP or ATP bound PaNTD

B1: Pseudomonas aeruginosa MutL N-terminal domain (PaNTD, amino acids 1-339), His6-tagged (domain or fragment, UniProt Q9HUL8 1-339, looked up)
chain: T1 sequence (Q9HUL8 1-339)
notes: MutL of Pseudomonas aeruginosa, N-terminal ATPase domain, residues 1-339 of PaMutL, amplified from genomic DNA; monomeric MW 37.7 kDa; The pET-15b vector should add an N-terminal His6 tag with a thrombin site (surmised, as is cloning through NdeI); no cleavage of the tag is described; also called His6-PaNTD; His-tag PaNTD
- dimer share of peak area [3]: ~0.2 share of the dimer peak (monomer 0.8)
- stoichiometry N [3]: 2
